The results in this text go back to ChEMBL document CHEMBL3621093, “Design, synthesis and evaluation of thiohydantoin derivatives as potent topoisomerase I (Top1) inhibitors with anticancer activity” (Eur J Med Chem, 2015).

Series [1] in a line: Inhibition of Leishmania donovani Top1 (large/ small subunits) expressed in Escherichia coli BL21 (DE3) pLysS cells assessed as decrease in supercoiled pBS(SK+) DNA isomer relaxation preincubated for 5 mins followed by pBS(SK+) DNA addition by agarose gel electrophoresis.
A further series has as its target T1, DNA topoisomerase 1 (Homo sapiens, UniProt P11387).
T1 sequence (P11387 whole entry): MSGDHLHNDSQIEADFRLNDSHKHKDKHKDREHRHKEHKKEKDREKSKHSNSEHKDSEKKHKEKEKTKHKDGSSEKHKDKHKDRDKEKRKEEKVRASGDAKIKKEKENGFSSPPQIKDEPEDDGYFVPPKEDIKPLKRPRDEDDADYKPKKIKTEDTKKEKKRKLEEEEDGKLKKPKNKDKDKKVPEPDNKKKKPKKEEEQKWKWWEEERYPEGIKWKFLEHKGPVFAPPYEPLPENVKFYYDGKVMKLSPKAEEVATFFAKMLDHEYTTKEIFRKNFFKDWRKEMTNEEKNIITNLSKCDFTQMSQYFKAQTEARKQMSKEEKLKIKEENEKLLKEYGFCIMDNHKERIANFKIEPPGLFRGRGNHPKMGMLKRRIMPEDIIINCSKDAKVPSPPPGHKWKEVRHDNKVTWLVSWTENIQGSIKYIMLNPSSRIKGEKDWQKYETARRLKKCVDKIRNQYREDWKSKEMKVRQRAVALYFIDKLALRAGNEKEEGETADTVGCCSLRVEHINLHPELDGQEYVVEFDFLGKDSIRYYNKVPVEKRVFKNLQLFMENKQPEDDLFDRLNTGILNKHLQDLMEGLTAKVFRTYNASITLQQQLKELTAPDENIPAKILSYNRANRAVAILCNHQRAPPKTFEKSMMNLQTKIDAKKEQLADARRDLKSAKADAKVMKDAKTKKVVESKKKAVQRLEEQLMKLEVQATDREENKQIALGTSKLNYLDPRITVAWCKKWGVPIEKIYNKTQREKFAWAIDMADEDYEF
Put plainly: Inhibition of wild type recombinant human Top1 expressed in baculovirus infected insect Sf9 cells assessed as decrease in supercoiled pBS(SK+) DNA isomer relaxation preincubated for 5 mins followed by pBS(SK+) DNA addition by agarose gel electrophoresis.

The next series relates to MCF7. Briefly: Cytotoxicity against human MCF7 cells assessed as inhibition of cell viability after 72 hrs by MTT assay. The series is classed as functional, cell-based. Particulars: MCF7, 72 h.
Another series relates to HCT-116. Briefly: Cytotoxicity against human HCT116 cells assessed as inhibition of cell viability after 72 hrs by MTT assay. It counts as functional, cell-based. Particulars: HCT-116, 72 h. A general note: Tetrazolium assays rely on reduction of a dye to a coloured formazan, in cell work by metabolically active cells.
In series [2] the target is T2, DNA topoisomerase 1 (Homo sapiens) (UniProt P11387).
T2 sequence (whole entry): T1 sequence (P11387 whole entry)
Put plainly: Inhibition of wild type recombinant human Top1 expressed in baculovirus infected insect Sf9 cells assessed as decrease in supercoiled pBS(SK+) DNA isomer relaxation at 5 to 200 uM incubated simultaneously with enzyme and pBS(SK+) DNA for 30 mins by agarose gel electrophoresis.

A further series concerns HeLa. Briefly: Cytotoxicity against human HeLa cells assessed as inhibition of cell viability after 72 hrs by MTT assay. The series is classed as functional, cell-based.
Series [3] addresses T2, DNA topoisomerase 1 (Homo sapiens). Briefly: Inhibition of human Top1 in human MCF7 cells assessed as decrease in supercoiled pBS(SK+) DNA isomer relaxation at 5 to 200 uM incubated simultaneously with enzyme and pBS(SK+) DNA for 30 mins by agarose gel electrophoresis. The series is classed as cell-based.
Series [4] has the same target. Briefly: Inhibition of wild type recombinant human Top1 expressed in baculovirus infected insect Sf9 cells assessed as stabilization of Top1-cleavage complexes at 50 to 200 uM incubated for 30 mins by agarose gel electrophoresis.
Series [5] has the same target. Briefly: Inhibition of human Top1 in human MCF7 cells assessed as decrease in supercoiled pBS(SK+) DNA isomer relaxation at 5 to 200 uM preincubated for 5 mins followed by pBS(SK+) DNA addition by agarose gel electrophoresis. It counts as cell-based.
Another series relates to Leishmania donovani. Briefly: Inhibition of Leishmania donovani Top1 (large/ small subunits) expressed in Escherichia coli BL21 (DE3) pLysS cells assessed as decrease in supercoiled pBS(SK+) DNA isomer relaxation at 5 to 200 uM incubated simultaneously with enzyme and pBS(SK+) DNA for 30 mins by agarose gel electrophoresis.
Series [6] can be described thus: Toxicity in HEK293 cells assessed as inhibition of cell viability after 72 hrs by MTT assay. Particulars: human. It counts as cell-based.

The source made the active and inactive calls. The calls are words filed in the database; no cut-off is given here.

The term EC50 denotes the concentration giving half of the maximal effect. `COc1ccc(/C=C2/NC(=S)NC2=O)cc1C`: the EC50 (in [1]; on DNA topoisomerase 1) was above 100 µM each time.
As for `COc1ccc(-c2ccc(/C=C3/NC(=O)NC3=O)s2)cn1`, the EC50 (in series [1]; at DNA topoisomerase 1) was above 100 µM throughout.
For the compound `Cc1ccc(/C=C2/NC(=S)NC2=O)cc1`, the EC50 (in [1]; at DNA topoisomerase 1) was above 100 µM in each case.
For `COc1ccc(-c2csc(/C=C3/NC(=S)NC3=O)c2)cn1`, the results for the EC50 (in series [1]; at DNA topoisomerase 1) were 63.1 µM and 30.3 µM, respectively.
The corresponding values for `O=C1NC(=S)N/C1=C/c1cc(Br)cs1` are above 100 µM and above 100 µM.
Regarding `Cc1cc(C)cc(/C=C2/NC(=O)NC2=O)c1`, the 50% effective concentration (EC50) (in [1]; at DNA topoisomerase 1) was above 100 µM throughout.
Consider `O=C1NC(=O)/C(=C\c2cc(Br)cs2)N1`, for which the half-maximal effective concentration (EC50) (in [1]; on DNA topoisomerase 1) was above 100 µM throughout.
In the case of `O=C1NC(=S)N/C1=C/c1ccc([N+](=O)[O-])cc1`, the EC50 (in series [1]; at DNA topoisomerase 1) was above 100 µM throughout.
Regarding `COc1cc(/C=C2/NC(=S)NC2=O)cc(OC)c1OC`, the EC50 is above 100 µM in series [1] and 93.2 µM at DNA topoisomerase 1.
Regarding `O=C1NC(=S)N/C1=C/c1ccc(-c2cccnc2)s1`, the results for the EC50 (in series [1]; on DNA topoisomerase 1) were 54.8 µM and 27.7 µM, respectively.
Consider `COc1ccc(-c2csc(/C=C3/NC(=O)NC3=O)c2)cn1`, for which the concentration for a half-maximal effect (EC50) (in series [1]; on DNA topoisomerase 1) was above 100 µM each time.
As for `COc1ccc(/C=C2/NC(=O)NC2=O)cc1OC`, the EC50 (in series [1]; on DNA topoisomerase 1) was above 100 µM in each case.
Turning to `COc1cccc(/C=C2/NC(=S)NC2=O)c1`, the concentration for a half-maximal effect (EC50) (in series [1]; at DNA topoisomerase 1) was above 100 µM throughout.
Take `COc1ccc(/C=C2/NC(=S)NC2=O)cc1`: the EC50 (in series [1]; at DNA topoisomerase 1) was above 100 µM each time.
On to `Cn1cc(/C=C2/NC(=S)NC2=O)c2ccccc21`, for which the EC50 in series [1] is above 100 µM; on DNA topoisomerase 1, 48.9 µM.
A word on the IC50: it is the point on the concentration scale where inhibition reaches its midpoint. As to `COc1ccc(-c2ccc(/C=C3/NC(=S)NC3=O)s2)cn1`, the IC50 in the series on MCF7 is 11.4 µM; in the series on HCT-116 it was above 50 µM; in the series with HeLa it was 1.1 µM. Also, the inhibition result (in series [2]; in series [3]; in series [4]; in [5]; with Leishmania donovani) was “Active” throughout. Further, the values for the EC50 (in series [1]; on DNA topoisomerase 1) were 65.2 µM and 10.1 µM, respectively. For the same compound, the IC50 at 72 h in series [6] was above 50 µM.
Regarding `COc1cc(/C=C2/NC(=O)NC2=O)cc(OC)c1OC`, the half-maximal effective concentration (EC50) (in series [1]; on DNA topoisomerase 1) was above 100 µM in each case.
`Cc1ccc(/C=C2/NC(=O)NC2=O)cc1`: the EC50 (in [1]; on DNA topoisomerase 1) was above 100 µM in each case.
Consider `COc1ccc(/C=C2/NC(=S)NC2=O)cc1OC`, for which the EC50 (in series [1]; on DNA topoisomerase 1) was above 100 µM each time.
Take `COc1ccc(/C=C2/NC(=O)NC2=O)cc1C`: the EC50 (in series [1]; at DNA topoisomerase 1) was above 100 µM in each case.
